These molecules were tested on A375P cells (assay: Anti-proliferative activity on A375P cell line (MTT assay)). Conditions: A375P human melanoma cell line.
Assay type: cell-based
Method: A375P cells were purchased from American Type Culture Collection (ATCC, Rockville, Md., US) and maintained in DMEM medium (Welgene, Daegu, Korea) supplemented with 10% FBS (Welgene) and 1% penicillin/streptomycin (Welgene) in a humidified atmosphere with 5% CO2 at 37° C. The A375P cells were taken from culture substrate with 0.05% trypsin-0.02% EDTA and plated at a density of 5×10^3 cells/well in 96 well plates and then incubated at 37° C. for 24 h in a humidified atmosphere with 5% CO2 prior to treatment of various concentration (three fold serial dilution, 12 points) of test compounds. The A357P cell viability was assessed by the conventional 3-(4,5-dimethylthiazol-2-yl)-2,5-diphenyltetrazolium bromide (MTT) reduction assay. MTT assays were carried out with CellTiter 96 (Promega) according to the manufacturer's instructions.
After 1 day, 0.5 μl the representative compounds of the examples were added thereto. The representative compounds of the examples were prepared by three fold serial dilution of 10 mM stock solution in DMSO, 12 point (final conc. DMSO 0.5%). Then, 15 μl dye was added in each well. After 2 h, 100 μl stop solution was added each well. After 24 h, absorbance was measured. The absorbance at 590 nm was recorded using EnVision2103 (PerkinElmer; Boston, Mass., US). The IC50 value was calculated using GraphPad Prism 4.0 software.

GI50, < 10 µM:
CCOC(=O)c1n[nH]c2cc(-c3ccc(NC(=O)c4cccc(C(F)(F)F)c4)cc3)ccc12 [Example 2, ethyl 6-(4-(3-(trifluoromethyl)benzamido)phenyl)-1H-indazole-3-carboxylate]
CCOC(=O)c1n[nH]c2cc(-c3ccc(NC(=O)c4ccnnc4)cc3)ccc12 [Example 10, ethyl 6-(4-(pyridazine-4-carboxamido)phenyl)-1H-indazole-3-carboxylate]
CCOC(=O)c1n[nH]c2cc(-c3ccc(NC(=O)Cc4ccc(OC)c(OC)c4)cc3)ccc12 [Example 11, ethyl 6-(4-(2-(3,4-dimethoxyphenyl)acetamido)phenyl)-1H-indazole-3-carboxylate]
CCOC(=O)c1n[nH]c2cc(-c3ccc(NC(=O)c4ccncc4Cl)cc3)ccc12 [Example 13, ethyl 6-(4-(3-chloroisonicotinamido)phenyl)-1H-indazole-3-carboxylate]
CCOC(=O)c1n[nH]c2cc(-c3ccc(NC(=O)c4ccc(OC)c5ccc(OC)cc45)cc3)ccc12 [Example 15, ethyl 6-(4-(4,7-dimethoxy-1-naphthamido)phenyl)-1H-indazole-3-carboxylate]
CCOC(=O)c1n[nH]c2cc(-c3ccc(NC(=O)c4ccc(-c5cc(C(F)(F)F)ccc5Cl)o4)cc3)ccc12 [Example 16, ethyl 6-(4-(5-(2-chloro-5-(trifluoromethyl)phenyl)furan-2-carboxamido)phenyl)-1H-indazole-3-carboxylate]
CCOC(=O)c1n[nH]c2cc(-c3ccc(NC(=O)c4ccc(OC5CCN(C)CC5)c(C(F)(F)F)c4)cc3)ccc12 [Example 19, ethyl 6-(4-(4-(1-methylpiperidin-4-yloxy)-3-(trifluoromethyl)benzamido)phenyl)-1H-indazole-3-carboxylate]
CCOC(=O)c1n[nH]c2cc(-c3ccc(NC(=O)Nc4ccc(Cl)c(Cl)c4)cc3)ccc12 [Example 20, ethyl 6-(4-(3-(3,4-dichlorophenyl)ureido)phenyl)-1H-indazole-3-carboxylate]
CCOC(=O)c1n[nH]c2cc(-c3ccc(NC(=O)Nc4cc(C(F)(F)F)cc(C(F)(F)F)c4)cc3)ccc12 [Example 22, ethyl 6-(4-(3-(3,5-bis(trifluoromethyl)phenyl)ureido)phenyl)-1H-indazole-3-carboxylate]
CCOC(=O)c1n[nH]c2cc(-c3ccc(NC(=O)Nc4cccc(C(F)(F)F)c4)cc3)ccc12 [Example 23, ethyl 6-(4-(3-(3-(trifluoromethyl)phenyl)ureido)phenyl)-1H-indazole-3-carboxylate]
CNC(=O)c1n[nH]c2cc(-c3ccc(NC(=O)c4ccc(-c5ccc(OC)cc5)o4)cc3)ccc12 [Example 25, 6-(4-(5-(4-methoxyphenyl)furan-2-carboxamido)phenyl)-N-methyl-1H-indazole-3-carboxamide]
CNC(=O)c1n[nH]c2cc(-c3ccc(NC(=O)c4ccc(Br)s4)cc3)ccc12 [Example 26, 6-(4-(5-bromothiophene-2-carboxamido)phenyl)-N-methyl-1H-indazole-3-carboxamide]
CNC(=O)c1n[nH]c2cc(-c3ccc(NC(=O)c4cc5ccccc5s4)cc3)ccc12 [Example 27, 6-(4-(benzo[b]thiophene-2-carboxamido)phenyl)-N-methyl-1H-indazole-3-carboxamide]
O=C(Nc1ccc(-c2ccc3c(C(=O)NCCN4CCOCC4)n[nH]c3c2)cc1)c1cccc(C(F)(F)F)c1 [Example 30, N-(2-morpholinoethyl)-6-(4-(3-(trifluoromethyl)benzamido)phenyl)-1H-indazole-3-carboxamide]
O=C(Nc1ccc(-c2ccc3c(C(=O)NCCN4CCOCC4)n[nH]c3c2)cc1)c1ccc(Br)s1 [Example 31, 6-(4-(5-bromothiophene-2-carboxamido)phenyl)-N-(2-morpholinoethyl)-1H-indazole-3-carboxamide]
O=C(Nc1ccc(-c2ccc3c(C(=O)NCCN4CCOCC4)n[nH]c3c2)cc1)c1cc2ccccc2s1 [Example 32, 6-(4-(benzo[b]thiophene-2-carboxamido)phenyl)-N-(2-morpholinoethyl)-1H-indazole-3-carboxamide]
Cc1cc(C(=O)Nc2ccc(-c3ccc4c(C(=O)NCCN5CCOCC5)n[nH]c4c3)cc2)c(C)o1 [Example 33, 6-(4-(2,5-dimethylfuran-3-carboxamido)phenyl)-N-(2-morpholinoethyl)-1H-indazole-3-carboxamide]
COc1ccc(-n2ncc(C(=O)Nc3ccc(-c4ccc5c(C(=O)NCCN6CCOCC6)n[nH]c5c4)cc3)c2C(F)(F)F)cc1 [Example 34, 6-(4-(1-(4-methoxyphenyl)-5-(trifluoromethyl)-1H-pyrazole-4-carboxamido)phenyl)-N-(2-morpholinoethyl)-1H-indazole-3-carboxamide]
O=C(Nc1ccc(-c2ccc3c(C(=O)Nc4cccc(C(F)(F)F)c4)n[nH]c3c2)cc1)c1ccc(Br)s1 [Example 35, 6-(4-(5-bromothiophene-2-carboxamido)phenyl)-N-(3-(trifluoromethyl)phenyl)-1H-indazole-3-carboxamide]
O=C(Nc1ccc(-c2ccc3c(C(=O)NCCN4CCOCC4)n[nH]c3c2)cc1)Nc1ccc(Cl)c(Cl)c1 [Example 36, 6-(4-(3-(3,4-dichlorophenyl)ureido)phenyl)-N-(2-morpholinoethyl)-1H-indazole-3-carboxamide]
CNC(=O)c1n[nH]c2cc(-c3ccc(NC(=O)c4cc(-n5cnc(C)c5)cc(C(F)(F)F)c4)cc3)ccc12 [Example 39, N-methyl-6-(4-(3-(4-methyl-1H-imidazol-1-yl)-5-(trifluoromethyl)benzamido)phenyl)-1H-indazole-3-carboxamide]
CNC(=O)c1n[nH]c2cc(-c3ccc(NC(=O)c4ccc(OC5CCN(C)CC5)c(C(F)(F)F)c4)cc3)ccc12 [Example 40, N-methyl-6-(4-(4-(1-methylpiperidin-4-yloxy)-3-(trifluoromethyl)benzamido)phenyl)-1H-indazole-3-carboxamide]
COC(=O)c1n[nH]c2ccc(-c3ccc(NC(=O)Nc4ccc(Cl)c(C(F)(F)F)c4)cc3)cc12 [Example 43, methyl 5-(4-(3-(4-chloro-3-(trifluoromethyl)phenyl)ureido)phenyl)-1H-indazole-3-carboxylate]
CCOC(=O)c1n[nH]c2cc(-c3cccc(NC(=O)c4cc(C)on4)c3)ccc12 [Example 46, ethyl 6-(3-(5-methylisoxazole-3-carboxamido)phenyl)-1H-indazole-3-carboxylate]
CCOC(=O)c1n[nH]c2cc(-c3cccc(NC(=O)c4cc5ccccc5s4)c3)ccc12 [Example 47, ethyl 6-(3-(benzo[b]thiophene-2-carboxamido)phenyl)-1H-indazole-3-carboxylate]
CCOC(=O)c1n[nH]c2cc(-c3cccc(NC(=O)c4ccc(Br)s4)c3)ccc12 [Example 49, ethyl 6-(3-(5-bromothiophene-2-carboxamido)phenyl)-1H-indazole-3-carboxylate]
COC(=O)c1n[nH]c2cc(-c3cccc(NC(=O)c4cc(N5CCOCC5)cc(C(F)(F)F)c4)c3)ccc12 [Example 52, methyl 6-(3-(3-morpholino-5-(trifluoromethyl)benzamido)phenyl)-1H-indazole-3-carboxylate]
CCOC(=O)c1n[nH]c2cc(-c3cccc(NC(=O)Nc4ccc(Cl)c(Cl)c4)c3)ccc12 [Example 55, ethyl 6-(3-(3-(3,4-dichlorophenyl)ureido)phenyl)-1H-indazole-3-carboxylate]
COC(=O)c1n[nH]c2cc(-c3cccc(NC(=O)Nc4ccc(C)cc4C)c3)ccc12 [Example 56, methyl 6-(3-(3-(2,4-dimethylphenyl)ureido)phenyl)-1H-indazole-3-carboxylate]
O=C(Nc1cccc(-c2ccc3c(C(=O)NCCN4CCOCC4)n[nH]c3c2)c1)c1cc(N2CCOCC2)cc(C(F)(F)F)c1 [Example 59, 6-(3-(3-morpholino-5-(trifluoromethyl)benzamido)phenyl)-N-(2-morpholinoethyl)-1H-indazole-3-carboxamide]
O=C(Nc1cccc(-c2ccc3c(C(=O)NCCN4CCOCC4)n[nH]c3c2)c1)Nc1cccc(Cl)c1Cl [Example 60, 6-(3-(3-(2,3-dichlorophenyl)ureido)phenyl)-N-(2-morpholinoethyl)-1H-indazole-3-carboxamide]
CCNC(=O)c1n[nH]c2cc(-c3cccc(NC(=O)Nc4cccc(Cl)c4Cl)c3)ccc12 [Example 61, 6-(3-(3-(2,3-dichlorophenyl)ureido)phenyl)-N-ethyl-1H-indazole-3-carboxamide]
